Test results published in patent EP1592418B1, “USE OF ENDOCANNABINOID-LIKE COMPOUNDS FOR TREATING CNS DEGENERATIVE DISORDERS” (Research & Innovation S.p.A., priority 2003, dated 2004).

Columns and labels:
[1] = Solubility (physico-chemical properties); type: physicochemical; details: for solubility: organic solvent or mixture, read-out: solubility in organic solvents
Jurkat cells = experiment: Evaluation of cellular viability by MTT assay; type: cell-based, human; details: 10 µM, incubated 18-24 hr, MTT, absorbance 570 nm
Description: Jurkat, an acute T-lymphoblastic leukemia cell line generated from a person, have been used. Cell culture have been cultured in RPMI-1640 culture medium containing 10% FBS.
Jurkat cells were cultured at 1x10^5 cells/ml in RPMI 1640 medium supplemented with 10% fetal bovine serum (FBS), 2mM L-glutamine and 100 U/ml penicillin + 100 ug/ml streptomycin.
To detect drug effect in vitro, MTT [3-(4,5-dimethylthiazol-2-yl)-2,5-diphenyltetrazolium bromide] assay was used as described (Carmichael J et al., 1987 Cancer Res. 47, 936-42). Briefly, cells were seeded in triplicate on 96-well culture plates at a density of 20000 cells/well. The drugs were added in order to have the final concentration of 10 µM (1 µl of a solution of 10mM in DMSO) and incubated for 18-24 hr. Then MTT (0.5 mg/ml) was added to each well, and plates were incubated for an additional 1 to 3 hr in the dark at 37 °C. After this time the MTT solution was aspirated from the wells and 0.1 ml of DMSO was added. The plates were allowed to stand for 10 min, and then the absorbance was determined in a SpectraCount (Packard) microplate reader at 570 nm. The drug effect was determined by comparing absorbances of treated and untreated cells.

[2] = system: reverse passive Arthus reaction, mouse ear pinna; experiment: Reverse passive Arthus reaction (RPA) in the mouse ear pinna: oedema and Evans blue extravasation; type: in vivo; details: mouse ear; for Extravasation / Riduction % (extravasation): 10 mg/Kg i.p.; for Extravasation: Evans blue density at 620 nm in ear homogenate supernatant, Vehicle 0,90±0,06, Naïve 0,04±0,01; for Oedema (mg): 10 mg/Kg intraperitoneally 1 hour before induction, weight increase of 8 mm punch vs contralateral ear, three hours after antigen, Vehicle 49,8 ± 1,2, Naive 23,7 ± 1,2; for Riduction % (extravasation): reduction of extravasation versus Vehicle (0)
Source text: The Arthus model (RPA) is a model of immune-complex mediated tissue damage that involves the passive subcutaneous introduction of an antibody and the systemic administration of the corresponding antigen. This inflammatory model has been used to test the in vivo activity of the synthesised molecules.
The reverse passive Arthus reaction is induced, in the mouse ear pinna, by the subcutaneous injection of an excess of IgG anti human albumin followed by i.v. adiministration of the corresponding Ag (i.e. human albumin) together with Evans blue, 2 mg for each mouse, for the evaluation of extravasation.
(§1) The tested molecules were solubilised in DMSO, cremophor and PBS in a ratio of 1:1:18 and administered usually by intraperitonelly at the dosage of 10 mg/Kg 1 hour before the induction of anafilactic reaction. The animals were sacrificed 3 hours after the molecule administration.
The oedema and the extravasations are evaluated tree hours after the i.v. administration of the antigen. The oedema is evaluated as the increase of weight of lesioned ear area dissected by a 8 mm biopsy punch as compared to the contralateral unlesioned auricular tissues. The extravasation is measured determining the Evans blue density at 620 nm in the supernatants deriving from ear homogenates following centrifugation at 10000 x g for 20 min.

[3] = Rectal temperature (central cannabinoid effect, hypothermia); type: in vivo, mouse; details: for ΔT (°C) rectal temperature: treated animals, Vehicle 0,1 ± 0,2
Description: as §1
TABLE 4. Rectal temperature in animals that have been treated with cannabinoids, endocannabinoids or molecules that are object of the present invention. Note a profound hypothermia induced by synthetic cannabinoid such as Win 55,212 or the endocannabinoid Anandamide while no alteration was induced by molecules that are object of the present invention.

CCCCCCCCCCCCCC(=O)NC(C)C [Example 1, N-isopropyl-myristoyl amide]
solubility ([1]; in DMSO and in chloroform): > 10000 µg/mL | solubility in water [1]: scarcely soluble | Growth inhibition (% of control) (Jurkat cells): 55.0 % of control | Extravasation [2]: 0,57±0,03 | Oedema (mg) [2]: 39,9 ± 2,1 mg | Riduction % (extravasation) [2]: 36.7% | ΔT (°C) rectal temperature [3]: 0,2 ± 0,3 °C

CCCCCCCCCCCCCCCC(=O)NC(C)C [Example 2, N-isopropyl-palmitoyl amide]
solubility ([1]; in DMSO and in chloroform): > 10000 µg/mL | solubility in water [1]: scarcely soluble | Growth inhibition (% of control) (Jurkat cells): 55.6 % of control | Extravasation [2]: 0,37±0,07 | Oedema (mg) [2]: 31,8 ± 1,8 mg | Riduction % (extravasation) [2]: 58.9% | ΔT (°C) rectal temperature [3]: 0,1 ± 0,1 °C

CCCCCCCCCCCCCCCCCC(=O)NC(C)C [Example 4, N-Isopropyl-stearoyl amide]
solubility ([1]; in DMSO and in chloroform): > 10000 µg/mL | solubility in water [1]: scarcely soluble | Growth inhibition (% of control) (Jurkat cells): 45.3 % of control | Extravasation [2]: 0,20±0,03 | Oedema (mg) [2]: 26,5 ± 0,9 mg | Riduction % (extravasation) [2]: 77.8% | ΔT (°C) rectal temperature [3]: 0,2 ± 0,1 °C

CCCCCCCCCCCCCCCCNC(C)=O [Example 12, N-hexadecyl-acetyl-amide]
solubility ([1]; in DMSO and in chloroform): > 10000 µg/mL | solubility in water [1]: scarcely soluble | Growth inhibition (% of control) (Jurkat cells): 64.8 % of control | Extravasation [2]: 0,72±0,03 | Oedema (mg) [2]: 41,5 ± 1,9 mg | Riduction % (extravasation) [2]: 20.0% | ΔT (°C) rectal temperature [3]: 0,2 ± 0,2 °C

CCCCCCCCCCCCCCCC(=O)NC1CCCCC1 [Example 15, N-cyclohexyl-palmitoyl amide]
solubility in organic solvents ([1]; in DMSO and in chloroform): >10 mg/ml in DMSO and in chloroform | solubility in water [1]: scarcely soluble | Growth inhibition (% of control) (Jurkat cells): 63.2 % of control | Extravasation [2]: 0,58±0,16 | Oedema (mg) [2]: 47,5 ± 4,2 mg | ΔT (°C) rectal temperature [3]: 0,1 ± 0,1 °C

CCCCCCCCCCCCCCCC(=O)NCCCC [Example 23, N-butyl-palmitoyl amide]
solubility ([1]; in DMSO and in chloroform): > 10000 µg/mL | solubility in water [1]: scarcely soluble | Growth inhibition (% of control) (Jurkat cells): 36.0 % of control | Extravasation [2]: 0,59±0,08 | Oedema (mg) [2]: 35,2 ± 1.7 mg | Riduction % (extravasation) [2]: 34.5%

CCCCCCCCCCCCCCCCCC(=O)NCCCC [Example 24, N- butyl-stearoyl amide]
solubility ([1]; in DMSO and in chloroform): > 10000 µg/mL | solubility in water [1]: scarcely soluble | Growth inhibition (% of control) (Jurkat cells): 32.1 % of control | Extravasation [2]: 0,55±0,07 | Oedema (mg) [2]: 33,6 ± 1.2 mg | Riduction % (extravasation) [2]: 38.9%

CCCCCCCCCCCCCCCC(=O)NCC(C)C [Example 25, N-isobutyl-palmitoyl amide]
solubility ([1]; in DMSO and in chloroform): > 10000 µg/mL | solubility in water [1]: scarcely soluble | Extravasation [2]: 0,72±0,07 | Oedema (mg) [2]: 42,4 ± 2.4 mg | Riduction % (extravasation) [2]: 20.0% | ΔT (°C) rectal temperature [3]: 0,3 ± 0,1 °C

CCCCCCCCCCCCCCCC(=O)NC1CCC1 [Example 27, N-cyclobutyl-palmitoyl amide]
solubility ([1]; in DMSO and in chloroform): > 10000 µg/mL | solubility in water [1]: scarcely soluble | Growth inhibition (% of control) (Jurkat cells): 29.2 % of control | Extravasation [2]: 0,39±0,11 | Oedema (mg) [2]: 38,5 ± 0.9 mg | Riduction % (extravasation) [2]: 56.7% | ΔT (°C) rectal temperature [3]: 0,1 ± 0,1 °C

CCCCCCCCCCCCCCCCCC(=O)NC1CCC1 [Example 28, N-cyclobutyl-stearoyl amide]
solubility ([1]; in DMSO and in chloroform): > 10000 µg/mL | solubility in water [1]: scarcely soluble | Growth inhibition (% of control) (Jurkat cells): 31.6 % of control | Extravasation [2]: 0,31±0,12 | Oedema (mg) [2]: 40,6 ± 2.6 mg | Riduction % (extravasation) [2]: 65.6%

CCCCCCCCCCCCCCCC(=O)NCCCCC [Example 33, N-pentyl-palmitoyl amide]
solubility ([1]; in DMSO and in chloroform): > 10000 µg/mL | solubility in water [1]: scarcely soluble | Growth inhibition (% of control) (Jurkat cells): 33.3 % of control | Extravasation [2]: 0,72±0,06 | Oedema (mg) [2]: 43,9 ± 2.4 mg | Riduction % (extravasation) [2]: 20.0%

CCCCCCCCCCCCCCCCCC(=O)NCCCCC [Example 34, N- pentyl-stearoyl amide]
solubility ([1]; in DMSO and in chloroform): > 10000 µg/mL | solubility in water [1]: scarcely soluble | Growth inhibition (% of control) (Jurkat cells): 34.2 % of control | Extravasation [2]: 0,62±0,08 | Oedema (mg) [2]: 42,5 ± 3.5 mg | Riduction % (extravasation) [2]: 31.2% | ΔT (°C) rectal temperature [3]: 0,1 ± 0,1 °C

CCCCCCCCCCCCCCCC(=O)NCCC(C)C [Example 35, N-isopentyl-palmitoyl amide]
solubility ([1]; in DMSO and in chloroform): > 10000 µg/mL | solubility in water [1]: scarcely soluble | Growth inhibition (% of control) (Jurkat cells): 29.2 % of control | Extravasation [2]: 0,58±0,09 | Oedema (mg) [2]: 38,3 ± 1.8 mg | Riduction % (extravasation) [2]: 35.6% | ΔT (°C) rectal temperature [3]: 0,3 ± 0,2 °C

CCCCCCCCCCCCCCCC(=O)NC1CCCC1 [Example 37, N-cyclopentyl-palmitoyl amide]
solubility ([1]; in DMSO and in chloroform): > 10000 µg/mL | solubility in water [1]: scarcely soluble | Growth inhibition (% of control) (Jurkat cells): 32.1 % of control | Extravasation ([2]; 10 mg/kg): 0,64±0,13 | Oedema (mg) ([2]; 10 mg/kg): 36,2 ± 0.9 mg | Riduction % (extravasation) ([2]; 10 mg/kg): 52.5%

CCCCCCCCCCCCCCCC(N)=O [Palmitoylamide]
Growth inhibition (% of control) (Jurkat cells): 33.9 % of control | Extravasation [2]: 0,35±0,05 | Oedema (mg) [2]: 33,2 ± 0.7 mg | Riduction % (extravasation) [2]: 61.2% | ΔT (°C) rectal temperature [3]: 0,2 ± 0,1 °C

CCCCCCCCCCCCCCCCCC(N)=O [Starylamide, stearylamide]
Growth inhibition (% of control) (Jurkat cells): 35.2 % of control | Extravasation [2]: 0,31±0,08 | Oedema (mg) [2]: 30,8 ± 0.5 mg | Riduction % (extravasation) [2]: 65.6% | ΔT (°C) rectal temperature [3]: 0,3 ± 0,2 °C

Cc1c(C(=O)c2cccc3ccccc23)c2cccc3c2n1[C@H](CN1CCOCC1)CO3 [WIN 55.212, reference compound]
Growth inhibition (% of control) (Jurkat cells): 79.2 % of control | Extravasation [2]: 0,51 ±0,02 | Oedema (mg) [2]: 33,7 ± 4,6 mg | Riduction % (extravasation) [2]: 43.5% | rectal temperature (in words) ([3]; mouse, in vivo): drastic reduction | ΔT (°C) rectal temperature [3]: -5,1 ± 1,3 °C
